According to patent US8883841B2, “Oncogenic ras-specific cytotoxic compound and methods of use thereof” (The Board of Regents of the University of Texas System, priority 2005, dated 2014):
“Also recorded” adds a separate entry of the source.

Legend:
[1] = tested on: HCT-116; assay: NCI in-vitro testing, HCT-116 (Colon Cancer)
[2] = tested on: DU-145; assay: NCI in-vitro testing, DU-145 (Prostate Cancer)
[3] = tested on: H460 cells; assay: cells; details: Homo sapiens, NCI-H460, read-out: IC50 (−LogM), H460, Lung (converted)
[4] = tested on: UO-31; assay: NCI in-vitro testing, UO-31 (Renal Cancer)
[5] = tested on: OVCAR-3; assay: NCI in-vitro testing, OVCAR-3 (Ovarian Cancer)
[6] = tested on: K-562; assay: NCI in-vitro testing, K-562 (Leukemia)
[7] = tested on: EKVX; assay: NCI in-vitro testing, EKVX (Non-Small Cell Lung Cancer)
[8] = tested on: NCI-H522; assay: NCI in-vitro testing, NCI-H522 (Non-Small Cell Lung Cancer)
[9] = tested on: RPMI-8226; assay: NCI in-vitro testing, RPMI-8226 (Leukemia)
[10] = tested on: NCI-H23; assay: NCI in-vitro testing, NCI-H23 (Non-Small Cell Lung Cancer)
[11] = tested on: HS 578T; assay: NCI in-vitro testing, HS 578T (Breast Cancer)
[12] = tested on: MOLT-4; assay: NCI in-vitro testing, MOLT-4 (Leukemia)
[13] = tested on: NCI-H460; assay: NCI in-vitro testing, NCI-H460 (Non-Small Cell Lung Cancer)
[14] = tested on: SF-539; assay: NCI in-vitro testing, SF-539 (CNS Cancer)
[15] = tested on: H2087; assay: Cell viability, H2087 lung cancer cells; format: cell-based, human
[16] = tested on: H322 cells; assay: Cell viability, H322 lung cancer cells; format: cell-based, human
[17] = tested on: Hey; assay: Cell viability, Hey ovary cancer cells; format: cell-based
[18] = tested on: Ovcar443; assay: Cell viability, Ovcar443 ovary cancer cells; format: cell-based
[19] = tested on: Sw620; assay: Cell viability, Sw620 colon cancer cells; format: cell-based, human; details: Sw620, Colon

SMILES: O=Cc1cn(Cc2cccc(Cl)c2)c2ccccc12 [Oncrasin K027, 1-(3-chlorobenzyl)-1H-indole-3-carbaldehyde]
- TGI ([1]; HCT-116): 1.06E−5 Molar
- Percent Growth ([1]; HCT-116, Log10 Concentration −4.0 Molar): −84%
- Percent Growth ([1]; HCT-116, Log10 Concentration −5.0 Molar): 2%
- Percent Growth ([1]; HCT-116, Log10 Concentration −6.0 Molar): 10%
- Percent Growth ([1]; HCT-116, Log10 Concentration −7.0 Molar): 30%
- Percent Growth ([1]; HCT-116, Log10 Concentration −8.0 Molar): 68%
- GI50 ([1]; Homo sapiens, HCT-116): 0.0294 µM
- CC50 ([1]; Homo sapiens, HCT-116, read-out: LC50): 60.6 µM
- TGI ([2]; DU-145): 2.78E−5 Molar
- Percent Growth ([2]; DU-145, Log10 Concentration −4.0 Molar): −53%
- Percent Growth ([2]; DU-145, Log10 Concentration −5.0 Molar): 42%
- Percent Growth ([2]; DU-145, Log10 Concentration −6.0 Molar): 98%
- Percent Growth ([2]; DU-145, Log10 Concentration −7.0 Molar): 108%
- Percent Growth ([2]; DU-145, Log10 Concentration −8.0 Molar): 108%
- GI50 ([2]; Homo sapiens, DU-145): 7.25 µM
- CC50 ([2]; Homo sapiens, DU-145, read-out: LC50): 93.3 µM
- IC50 [3]: 0.00398 µM
- GI50 ([4]; Homo sapiens, UO-31): 1.58 µM
- CC50 ([4]; Homo sapiens, UO-31, read-out: LC50): > 100 µM
- TGI ([4]; UO-31): 1.55E−6 Molar
- Percent Growth ([4]; UO-31, Log10 Concentration −4.0 Molar): −42%
- Percent Growth ([4]; UO-31, Log10 Concentration −5.0 Molar): 10%
- Percent Growth ([4]; UO-31, Log10 Concentration −6.0 Molar): 50%
- Percent Growth ([4]; UO-31, Log10 Concentration −7.0 Molar): 80%
- Percent Growth ([4]; UO-31, Log10 Concentration −8.0 Molar): 90%
- GI50 ([5]; Homo sapiens, OVCAR-3): 0.569 µM
- CC50 ([5]; Homo sapiens, OVCAR-3, read-out: LC50): 69.1 µM
- TGI ([5]; OVCAR-3): 1.03E−5 Molar
- Percent Growth ([5]; OVCAR-3, Log10 Concentration −4.0 Molar): −60%
- Percent Growth ([5]; OVCAR-3, Log10 Concentration −5.0 Molar): 1%
- Percent Growth ([5]; OVCAR-3, Log10 Concentration −6.0 Molar): 41%
- Percent Growth ([5]; OVCAR-3, Log10 Concentration −7.0 Molar): 77%
- Percent Growth ([5]; OVCAR-3, Log10 Concentration −8.0 Molar): 95%
- GI50 ([6]; Homo sapiens, K562): 0.0192 µM
- CC50 ([6]; Homo sapiens, K562, read-out: LC50): 54.5 µM
- TGI ([6]; K-562): 1.26E−5 Molar
- Percent Growth ([6]; K-562, Log10 Concentration −4.0 Molar): −71%
- Percent Growth ([6]; K-562, Log10 Concentration −5.0 Molar): 8%
- Percent Growth ([6]; K-562, Log10 Concentration −6.0 Molar): 87%
- Percent Growth ([6]; K-562, Log10 Concentration −7.0 Molar): 100%
- Percent Growth ([6]; K-562, Log10 Concentration −8.0 Molar): 114%
- TGI [7]: 6.47E−5 Molar
- GI50 ([7]; Homo sapiens): 21 µM
- CC50 ([7]; Homo sapiens, read-out: LC50): > 100 µM
- Percent Growth ([7]; Log10 Concentration −4.0 Molar): −22%
- Percent Growth ([7]; Log10 Concentration −5.0 Molar): 94%
- Percent Growth ([7]; Log10 Concentration −6.0 Molar): 107%
- Percent Growth ([7]; Log10 Concentration −7.0 Molar): 105%
- Percent Growth ([7]; Log10 Concentration −8.0 Molar): 103%
- TGI [8]: 1.24E−5 Molar
- GI50 ([8]; Homo sapiens, NCI-H522): 2.41 µM
- CC50 ([8]; Homo sapiens, NCI-H522, read-out: LC50): 51 µM
- Percent Growth ([8]; Log10 Concentration −4.0 Molar): −74%
- Percent Growth ([8]; Log10 Concentration −5.0 Molar): 7%
- Percent Growth ([8]; Log10 Concentration −6.0 Molar): 76%
- Percent Growth ([8]; Log10 Concentration −7.0 Molar): 82%
- Percent Growth ([8]; Log10 Concentration −8.0 Molar): 91%
- GI50 ([9]; Homo sapiens, RPMI-8226): 0.372 µM
- CC50 ([9]; Homo sapiens, RPMI-8226, read-out: LC50): > 100 µM
- TGI ([9]; RPMI-8226): 3.19E−6 Molar
- Percent Growth ([9]; RPMI-8226, Log10 Concentration −4.0 Molar): −35%
- Percent Growth ([9]; RPMI-8226, Log10 Concentration −5.0 Molar): −23%
- Percent Growth ([9]; RPMI-8226, Log10 Concentration −6.0 Molar): 24%
- Percent Growth ([9]; RPMI-8226, Log10 Concentration −7.0 Molar): 85%
- Percent Growth ([9]; RPMI-8226, Log10 Concentration −8.0 Molar): 119%
- GI50 ([10]; Homo sapiens, NCI-H23): 2.9 µM
- CC50 ([10]; Homo sapiens, NCI-H23, read-out: LC50): 71.1 µM
- TGI ([10]; NCI-H23): 2.10E−5 Molar
- Percent Growth ([10]; NCI-H23, Log10 Concentration −4.0 Molar): −54%
- Percent Growth ([10]; NCI-H23, Log10 Concentration −5.0 Molar): 31%
- Percent Growth ([10]; NCI-H23, Log10 Concentration −6.0 Molar): 57%
- Percent Growth ([10]; NCI-H23, Log10 Concentration −7.0 Molar): 82%
- Percent Growth ([10]; NCI-H23, Log10 Concentration −8.0 Molar): 94%
- TGI ([11]; HS 578T): 2.75E−6 Molar
- Percent Growth ([11]; HS 578T, Log10 Concentration −4.0 Molar): −38%
- Percent Growth ([11]; HS 578T, Log10 Concentration −5.0 Molar): 30%
- Percent Growth ([11]; HS 578T, Log10 Concentration −6.0 Molar): 91%
- Percent Growth ([11]; HS 578T, Log10 Concentration −7.0 Molar): 98%
- Percent Growth ([11]; HS 578T, Log10 Concentration −8.0 Molar): 105%
- GI50 ([11]; Homo sapiens, Hs-578T): 4.68 µM
- CC50 ([11]; Homo sapiens, Hs-578T, read-out: LC50): > 100 µM
- CC50 ([12]; Homo sapiens, MOLT-4, read-out: LC50): 82.6 µM
- TGI ([12]; MOLT-4): 3.82E−5 Molar
- Percent Growth ([12]; MOLT-4, Log10 Concentration −4.0 Molar): −62%
- Percent Growth ([12]; MOLT-4, Log10 Concentration −5.0 Molar): 87%
- Percent Growth ([12]; MOLT-4, Log10 Concentration −6.0 Molar): 109%
- Percent Growth ([12]; MOLT-4, Log10 Concentration −7.0 Molar): 102%
- Percent Growth ([12]; MOLT-4, Log10 Concentration −8.0 Molar): 114%
- TGI [13]: 3.79E−5 Molar
- GI50 ([13]; Homo sapiens, NCI-H460): 0.0888 µM
- CC50 ([13]; Homo sapiens, NCI-H460, read-out: LC50): > 100 µM
- Percent Growth ([13]; Log10 Concentration −4.0 Molar): −9%
- Percent Growth ([13]; Log10 Concentration −5.0 Molar): 13%
- Percent Growth ([13]; Log10 Concentration −6.0 Molar): 20%
- Percent Growth ([13]; Log10 Concentration −7.0 Molar): 48%
- Percent Growth ([13]; Log10 Concentration −8.0 Molar): 79%
- GI50 ([14]; Homo sapiens, SF-539): 10.9 µM
- CC50 ([14]; Homo sapiens, SF-539, read-out: LC50): 86.6 µM
- TGI ([14]; SF-539): 2.70E−5 Molar
- Percent Growth ([14]; SF-539, Log10 Concentration −4.0 Molar): −73%
- Percent Growth ([14]; SF-539, Log10 Concentration −5.0 Molar): 55%
- Percent Growth ([14]; SF-539, Log10 Concentration −6.0 Molar): 104%
- Percent Growth ([14]; SF-539, Log10 Concentration −7.0 Molar): 110%
- Percent Growth ([14]; SF-539, Log10 Concentration −8.0 Molar): 108%

SMILES: O=Cc1cn(Cc2ccc(Cl)cc2)c2ccccc12 [Oncrasin K001, 1H-Indole-3-carboxaldehyde, 1-[(4-chlorophenyl)methyl]-(9CI)]
- IC50 (−LogM) ([15]; H2087, Lung): >4.5 −LogM
- effect on H2087 cells ([15]; mutant N-Ras): minimal effect
- IC50 (−LogM) ([16]; H322, Lung): 4.5 −LogM
- toxicity to H322 cells ([16]; at 33 μM (the highest concentration tested), ras wild-type): not toxic
- effect on H322 cells ([16]; wild-type Ras, listed as Oncrasin-1): minimal effect; also recorded: not effective
- IC50 (−LogM) [17]: 4.6 −LogM
- IC50 (−LogM) [18]: 4.5 −LogM
- IC50 (−LogM) [19]: 5.4 −LogM
